Consider 1 compound from US4520022A, “Substituted vinyl cephalosporins” (priority 1983, dated 1985).

In this assay the test system is B. fragilis. Kind of assay: In vitro activity against anaerobes (MIC), B. fragilis. The assay is classed as cell-based. The note with it: Bacteroides fragilis, B. fragilis A21900; β-lactamase (-); clindamycin resistant.

Converted amounts (≈) assume the structure as drawn.

In turn, `CC1=C(C(=O)O)N2C(=O)[C@@H](NC(=O)[C@H](N)c3ccccc3)[C@H]2SC1` [Cephalexin] yielded an MIC of 12.5 µg/mL (≈ 36 µM).

By MIC is commonly meant the lowest concentration found to suppress growth.
